Drawing on US20240262815A1, “HETEROARYL DERIVATIVE, METHOD FOR PREPARING SAME, AND PHARMACEUTICAL COMPOSITION COMPRISING SAME AS ACTIVE INGREDIENT” (VORONOI INC., priority 2021, published 2024), this text covers GI50 for 20 compounds.

The test system of one assay is BT-474 cancer cells. The assay can be described thus: Inhibitory activity against proliferation of BT-474 cancer cells (CellTiter-Glo). The assay is classed as cell-based. The following applies: Homo sapiens, BT-474 ErbB2-overexpressing cancer cells, 120 hours after treatment. How it is done:
To evaluate the inhibitory activity of a compound according to the present invention against the proliferation of ErbB2-overexpressing cancer cells, the following experiment were performed.
10% FBS-added McCOY'S 5A was used for SK-BR-3 cancer cells. 20% FBS-added RPMI-1640 was used for BT-474 cancer cells. Transduced Ba/F3 cells were cultured in a RPMI-1640 medium to which 1 μg/ml puromycin (Invitrogen) was added.
48 hours before compound treatment, each type of the SK-BR-3 and BT-474 cells were seeded at 5,000 cells/well in a white clear bottom 96 well plate (Corning). The compound was diluted in dimethyl sulfoxide (SK-BR-3: 3-fold dilution, a total of 12 concentrations, BT-474: […], a total of 12 concentrations) and injected at 1 μl to have the final concentration of 0.2 nM to 5 μM. As for measurement of live cells, 120 hours after treatment with the compound, a CellTiter-Glo luminescent cell-viability reagent (Promega) was used to store the cells at room temperature for 10 minutes, followed by measurement of luminescence using a reader (SynergyNeo, Biotek). Each test was repeated three times.
The result values were calculated as a cell growth rate (%) compared to the control group. A graph was plotted using the GraphPad Prism version 8.3.0 program, and GI50 values were calculated.

The test system of a further assay is SK-BR-3 cancer cells. The assay can be described thus: Inhibitory activity against proliferation of SK-BR-3 cancer cells (CellTiter-Glo). It counts as cell-based. Particulars: Homo sapiens, SK-BR-3, 120 h, ErbB2-overexpressing SK-BR-3 cells, 120 hours after treatment. In short, it runs like this: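 Cells seeded 48 h before dosing (SK-BR-3 in McCOY'S 5A + 10% FBS; BT-474 in RPMI-1640 + 20% FBS), then exposed 120 h to 12 concentrations, 0.2 nM-5 μM final. Viability by CellTiter-Glo luminescence; GI50 from growth rate vs control, triplicate runs.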

Turning to `C=CC(=O)Nc1cc(Nc2cc(N3OCC[C@@H]3c3cc(F)cc(-c4cccc(F)c4)c3)ncn2)c(OC)cc1N1CCC(N2CCN(C3CC3)CC2)CC1` [Example 248, (R)-N-(2-(4-(4-cyclopropylpiper-azin-1-yl)piperidin-1-yl)-5-((6-(3-(3′,5-difluoro-[1,1′-biphenyl]-3-yl)-isoxazolidin-2-yl)-pyrimidin-4-yl)-amino)-4-methoxy-phenyl)acrylamide], in the assay on BT-474 cancer cells, the concentration for 50% growth inhibition (GI50) is < 50 nM.

`C=CC(=O)Nc1cc(Nc2cc(N3OCC[C@@H]3c3cccc(-c4cccc(C(N)=O)c4)c3)ncn2)c(OC)cc1N1CCN(C)CC1` [Example 325, (R)-3′-(2-(6-((5-acrylamido-2-methoxy-4-(4-methylpiperazin-1-yl)phenyl)-amino)pyrimidin-4-yl)isoxazolidin-3-yl)-[1,1′-biphen-yl]-3-carboxamide]: the GI50 in the assay on BT-474 cancer cells is < 50 nM.

On to `C=CC(=O)Nc1cc(Nc2cc(N3OCC[C@@H]3c3cccc(-c4cccc(F)c4F)c3)ncn2)c(OC)cc1N1CCN(C)[C@@H](C)C1` [Example 326, N-(5-((6-((R)-3-(2′,3′-difluoro-[1,1′-biphenyl]-3-yl)isoxazolidin-2-yl)pyrimidin-4-yl)amino)-2-((S)-3,4-dimethylpiper-azin-1-yl)-4-meth-oxyphenyl)acryl-amide], for which the GI50 with BT-474 cancer cells is < 50 nM.

On to `C=CC(=O)Nc1cc(Nc2cc(N3OCC[C@@H]3c3cccc(-c4ccc(F)cc4F)c3)ncn2)c(OC)cc1N1CCN(C)[C@@H](C)C1` [Example 327, N-(5-((6-((R)-3-(2′,4′-difluoro-[1,1′-biphenyl]-3-yl)-isoxazolidin-2-yl)-pyrimidin-4-yl)-amino)-2-((S)-3,4-dimethylpiperazin-1-yl)-4-methoxy-phenyl)acrylamide], for which the concentration for 50% growth inhibition (GI50) in the assay on BT-474 cancer cells was < 50 nM.

For `C=CC(=O)Nc1cc(Nc2cc(N3OCC[C@@H]3c3cccc(-c4cccc(F)c4)c3)ncn2)c(OC)cc1N1C[C@@H](C)N(C(=O)OC(C)(C)C)[C@@H](C)C1` [Example 328, tert-butyl (2S,6R)-4-(2-acrylamido-4-((6-((R)-3-(3′-fluoro-[1,1′-biphen-yl]-3-yl)isoxazol-idin-2-yl)pyrim-idin-4-yl)amino)-5-methoxyphenyl)-2,6-dimethylpiper-azine-1-carboxylate], the GI50 with BT-474 cancer cells lay in the range of 50 to 500 nM.

As for `C=CC(=O)Nc1cc(Nc2cc(N3OCC[C@@H]3c3cccc(-c4cccc(F)c4)c3)ncn2)c(OC)cc1N1C[C@@H](C)N[C@@H](C)C1` [Example 329, N-(2-((3S,5R)-3,5-dimethyl-piperazin-1-yl)-5-((6-((R)-3-(3′-fluoro-[1,1′-bi-phenyl]-3-yl)-isoxazolidin-2-yl)pyrimidin-4-yl)amino)-4-meth-oxyphenyl)acryl-amide], the GI50 in the assay with BT-474 cancer cells was < 50 nM.

For the compound `C=CC(=O)Nc1cc(Nc2cc(N3OCC[C@@H]3c3cccc(-c4cccc(C#N)c4)c3)ncn2)c(OC)cc1N1CCN(C)CC1` [Example 330, (R)-N-(5-((6-(3-(3′-cyano-[1,1′-biphenyl]-3-yl)-isoxazolidin-2-yl)-pyrimidin-4-yl)-amino)-4-methoxy-2-(4-methylpiper-azin-1-yl)phenyl)-acrylamide], the GI50 with BT-474 cancer cells was < 50 nM.

Regarding `C=CC(=O)Nc1cc(Nc2cc(N3OCC[C@@H]3c3cccc(-c4ccc(OC)nc4)c3)ncn2)c(OC)cc1N1CCN(C)[C@@H](C)C1` [Example 331, N-(2-((S)-3,4-dimethylpiperazin-1-yl)-4-methoxy-5-((6-((R)-3-(3-(6-methoxypyridin-3-yl)phenyl)isoxazol-idin-2-yl)pyrim-idin-4-yl)amino)-phenyl)acrylamide], the GI50 with BT-474 cancer cells was < 50 nM.

Take `C=CC(=O)Nc1cc(Nc2cc(N3OCC[C@@H]3c3cc(F)cc(-c4cnn(C)c4)c3)ncn2)c(OC)cc1N1CCC(N2CCN(C3CC3)CC2)CC1` [Example compound 129, (R)-N-(2-(4-(4-cyclopropylpiperazin-1-yl)piperidin-1-yl)-5-((6-(3-(3-fluoro-5-(1-methyl-1H-pyrazol-4-yl)phenyl)isoxazolidin-2-yl)pyrimidin-4-yl)amino)-4-methoxyphenyl)acrylamide]: the GI50 in the assay on SK-BR-3 cancer cells was < 50 nM.

On to `C=CC(=O)Nc1cc(Nc2cc(N3OCC[C@@H]3c3cc(F)cc(-c4cccc(F)c4)c3)ncn2)c(OC)cc1N1CCN(C)CC1` [Example compound 130, (R)-N-(5-((6-(3-(3′,5-difluoro-[1,1′-biphenyl]-3-yl)isoxazolidin-2-yl)pyrimidin-4-yl)amino)-4-methoxy-2-(4-methylpiperazin-1-yl)phenyl)acrylamide], for which the GI50 in the assay with SK-BR-3 cancer cells is < 50 nM.

For the compound `C=CC(=O)Nc1cc(Nc2cc(N3OCC[C@@H]3c3cc(F)cc(-c4cccc(F)c4)c3)ncn2)c(OC)cc1N1CCC(N2CCN(C3CC3)CC2)CC1` [Example compound 131, (R)-N-(2-(4-(4-cyclopropylpiperazin-1-yl)piperidin-1-yl)-5-((6-(3-(3′,5-difluoro-[1,1′-biphenyl]-3-yl)isoxazolidin-2-yl)pyrimidin-4-yl)amino)-4-methoxyphenyl)acrylamide], the concentration for 50% growth inhibition (GI50) in the assay with SK-BR-3 cancer cells is < 50 nM.

Turning to `C=CC(=O)Nc1cc(Nc2cc(N3OCCC3c3cc(F)cc(OCc4nccs4)c3)ncn2)c(OC)cc1N1CCN(C)CC1` (centres unmarked) [Example compound 132, N-(5-((6-(3-(3-fluoro-5-(thiazol-2-ylmethoxy)phenyl)isoxazolidin-2-yl)pyrimidin-4-yl)amino)-4-methoxy-2-(4-methylpiperazin-1-yl)phenyl)acrylamide], the 50% growth inhibitory concentration (GI50) with SK-BR-3 cancer cells is < 50 nM.

As for `C=CC(=O)Nc1cc(Nc2cc(N3OCC[C@@H]3c3cc(F)cc(-c4ccco4)c3)ncn2)c(OC)cc1N1CCN(C)CC1` [Example compound 133, (R)-N-(5-((6-(3-(3-fluoro-5-(furan-2-yl)phenyl)isoxazolidin-2-yl)pyrimidin-4-yl)amino)-4-methoxy-2-(4-methylpiperazin-1-yl)phenyl)acrylamide], the GI50 in the assay on SK-BR-3 cancer cells is < 50 nM.

As to `C=CC(=O)Nc1cc(Nc2cc(N3OCC[C@@H]3c3cc(F)cc(-c4ccco4)c3)ncn2)c(OC)cc1N1CCC(N2CCN(C3CC3)CC2)CC1` [Example compound 134, (R)-N-(2-(4-(4-cyclopropylpiperazin-1-yl)piperidin-1-yl)-5-((6-(3-(3-fluoro-5-(furan-2-yl)phenyl)isoxazolidin-2-yl)pyrimidin-4-yl)amino)-4-methoxyphenyl)acrylamide], the GI50 with SK-BR-3 cancer cells was < 50 nM.

`C=CC(=O)Nc1cc(Nc2cc(N3OCCC3c3cccc(C#Cc4ccccc4)c3)ncn2)c(OC)cc1N1CCN(C)CC1` (centres unmarked) [Example compound 137, N-(4-methoxy-2-(4-methylpiperazin-1-yl)-5-((6-(3-(3-(phenylethynyl)phenyl)isoxazolidin-2-yl)pyrimidin-4-yl)amino)phenyl)acrylamide]: the concentration for 50% growth inhibition (GI50) with SK-BR-3 cancer cells was in the range of 50 to 500 nM.

Consider `C=CC(=O)Nc1cc(Nc2cc(N3OCCC3c3cccc(C#Cc4ccccc4)c3)ncn2)c(OC)cc1N1CCC(N2CCN(C3CC3)CC2)CC1` (centres unmarked) [Example compound 138, N-(2-(4-(4-cyclopropylpiperazin-1-yl)piperidin-1-yl)-4-methoxy-5-((6-(3-(3-(phenylethynyl)phenyl)isoxazolidin-2-yl)pyrimidin-4-yl)amino)phenyl)acrylamide], for which the 50% growth inhibitory concentration (GI50) in the assay on SK-BR-3 cancer cells was in the range of 50 to 500 nM.

In the case of `C=CC(=O)Nc1cc(Nc2cc(N3OCCC3c3cccc(C#CC(C)(C)C)c3)ncn2)c(OC)cc1N1CCN(C)CC1` (centres unmarked) [Example compound 139, N-(5-((6-(3-(3-(3,3-dimethylbut-1-yn-1-yl)phenyl)isoxazolidin-2-yl)pyrimidin-4-yl)amino)-4-methoxy-2-(4-methylpiperazin-1-yl)phenyl)acrylamide], in the assay with SK-BR-3 cancer cells, the GI50 was in the range of 50 to 500 nM.

Take `C=CC(=O)Nc1cc(Nc2cc(N3OCCC3c3cccc(C#CC(C)(C)C)c3)ncn2)c(OC)cc1N1CCC(N2CCN(C3CC3)CC2)CC1` (centres unmarked) [Example compound 140, N-(2-(4-(4-cyclopropylpiperazin-1-yl)piperidin-1-yl)-5-((6-(3-(3-(3,3-dimethylbut-1-yn-1-yl)phenyl)isoxazolidin-2-yl)pyrimidin-4-yl)amino)-4-methoxyphenyl)acrylamide]: the GI50 in the assay on SK-BR-3 cancer cells lay within 50 to 500 nM.

In the case of `C=CC(=O)Nc1cc(Nc2cc(N3OCC[C@@H]3c3ccc(F)c(Oc4cccc(F)c4)c3)ncn2)c(OC)cc1N1CCC(N2CCN(C3CC3)CC2)CC1` [Example compound 152, (R)-N-(2-(4-(4-cyclopropylpiperazin-1-yl)piperidin-1-yl)-5-((6-(3-(4-fluoro-3-(3-fluorophenoxy)phenyl)isoxazolidin-2-yl)pyrimidin-4-yl)amino)-4-methoxyphenyl)acrylamide], the GI50 in the assay on SK-BR-3 cancer cells was < 50 nM.

As to `C=CC(=O)Nc1cc(Nc2cc(N3OCC[C@@H]3c3ccc(F)c(Oc4cccc(F)c4)c3)ncn2)c(OC)cc1N1CCN(C)CC1` [Example compound 153, (R)-N-(5-((6-(3-(4-fluoro-3-(3-fluorophenoxy)phenyl)isoxazolidin-2-yl)pyrimidin-4-yl)amino)-4-methoxy-2-(4-methylpiperazin-1-yl)phenyl)acrylamide], the 50% growth inhibitory concentration (GI50) with SK-BR-3 cancer cells was in the range of 50 to 500 nM.
